Tested on: sustained AF maintained during continuous vagal nerve stimulation
Experiment: Canine vagal-AF model: termination of sustained AF by drug infused IV
Assay type: in vivo, dog
Settings: for Effective doses for terminating AF: anesthetized mongrel dogs, IV over 5 min, cell format number of dogs-dose
Description: Mongrel dogs of either sex weighing 15-49 kg are anesthetized with morphine (2 mg/kg im initially, followed by 0.5 mg/kg IV every 2 h) and α-chloralose (120 mg/kg IV followed by an infusion of 29.25 mg/kg/h; St.-Georges et al., 1997). Dogs are ventilated mechanically with room air supplemented with oxygen via an endotracheal tube at 20 to 25 breaths/minute with a tidal volume obtained from a nomogram. Arterial blood gases are measured and kept in the physiological range (SAO2>90%, pH 7.30-7.45). Catheters are inserted into the femoral artery for blood pressure recording and blood gas measurement, and into both femoral veins for drug administration and venous sampling. Catheters are kept patent with heparinized 0.9% saline solution. Body temperature is maintained at 37-40° C. with a heating blanket.
The heart is exposed via a medial thoracotomy and a pericardial cradle is created. Three bipolar stainless steel, Teflon™-coated electrodes are inserted into the right atria for recording and stimulation, and one is inserted into the left atrial appendage for recording. A programmable stimulator (Digital Cardiovascular Instruments, Berkeley, Calif.) is used to stimulate the right atrium with 2 ms, twice diastolic threshold pulses. Two stainless steel, Teflon™-coated electrodes are inserted into the left ventricle, one for recording and the other for stimulation. […]
Drug effects to terminate sustained AF maintained during continuous vagal nerve stimulation are assessed. […] The vagal stimulation voltage is adjusted under control conditions, and then readjusted after each treatment to maintain the same bradycardic effect. […]
Diastolic threshold current is determined at a basic cycle length of 300 ms by increasing the current 0.1 mA incrementally until stable capture is obtained. […] Atrial and ventricular ERP is measured with the extrastimulus method, over a range of S1S2 intervals at a basic cycle length of 300 ms. […] Diastolic threshold and ERP are determined in duplicate and averaged to give a single value. […]

Which results are given for `O=C(NCC1CCCCN1)c1cc(OCC(F)(F)F)ccc1OCC(F)(F)F` (stereo not drawn) [Flecainide]?
Effective doses for terminating AF (AF terminated at this dose in 1 dog): 10 µmol/kg; Effective doses for terminating AF (AF terminated at this dose in 4 dogs): 2.5 µmol/kg; Effectiveness as a control in terminating vagal AF (control in the present study, compared with earlier reports): comparable to that previously reported

Reference: patent US9115081B2, “Synthetic process for aminocyclohexyl ether compounds” (Cardiome Pharma Corp., priority 2004, dated 2015)
